Experiments:
PARP-1 [1] = target: PARP-1 (Homo sapiens, UniProt P09874); test: PARP activity in permeabilised D283Med cells (10H anti-PAR immunoassay); format: cell-based
Experimental: Inhibition of PARP activity in 5000 exponentially growing D283Med cells was measured following treatment with a range of AG-014699 concentrations (0–1 μM), in comparison with DMSO-only controls. Maximally stimulated PARP activity was measured in replicate samples (n⩾3) of permeabilised cells by immunological detection of the amount of poly(ADP-ribose) (PAR) formed, using 10H anti-PAR antibody, during a 6-min incubation with NAD^+ and oligonucleotide (substrate and activator) by reference to a PAR (Biomol Research Labs, Plymouth, PA, USA) standard curve using a GCLP-validated assay described previously ([Plummer et al, 2005]).

D283Med xenografts = test: Tumour growth inhibition in vivo, D283Med xenografts; design: species or system mouse
Excerpt: (§1) All of the in vivo experiments were reviewed and approved by the relevant institutional animal welfare committees, and performed according to national law. Female athymic nude mice (CD1 nu/nu; Charles River, Margate, UK) used for anti-tumour studies were maintained and handled in isolators under specific pathogen-free conditions. […], […] and […] (1 × 10^7 exponentially growing cells per mouse, harvested and implanted in growth media) xenografts were established by sub-cutaneous implantation into CD-1 nude mice. […] Treatment was initiated when sufficient number of mice had established tumours to allow randomisation into treatment groups: day 17 for […], day 26 for […] and day 32 for […]. […] For drug combinations, AG-014699 was administered immediately after administering temozolomide. […] Tumour growth delay (TGD) is defined as the time to RTV4 in drug-treated mice compared with the time to RTV4 in control (vehicle alone) mice. Median tumour volume is shown, rather than the mean, as this is generally accepted as the most statistically reliable representation of the average growth rate of tumours in a small group of mice, if a normal distribution of tumour volumes cannot be assumed. Tumour growth delay was calculated as: median time to RTV4 in treated group-median time to RTV4 in control group.

D283Med cells = test: XTT growth inhibition, D283Med; format: cell-based, human
Experimental: (§2) Cell growth inhibition was estimated in exponentially growing D425Med, D283Med and D384Med cells in 96-well plates. Seeding densities of 1 × 10^3, 3 × 10^3 and 3 × 10^3 cells, respectively, ensured exponential growth for the duration of the experiment. At 24 h (D384Med) or 48 h (D283Med and D425Med) after seeding, cells were exposed to varying concentrations of temozolomide, as described in the Results, in the presence or absence of 0.4 μM AG-014699, a concentration previously shown to enhance temozolomide cytotoxicity in adult tumour cell lines ([Thomas et al, 2007]). After 3 days (D425Med and D384Med) or 5 days (D283Med) of culture (equivalent to approximately three cell divisions), the cell viability was quantified using an XTT cell proliferation kit assay (Roche, Mannheim, Germany), according to the manufacturer's instructions. Cell growth was expressed as a percentage in relation to DMSO or 0.4 μM AG-014699-alone controls. The concentration of temozolomide, alone or in combination with AG-014699, that inhibited growth by 50% (GI50) was calculated from computer-generated curves (GraphPad Software, San Diego, CA, USA). The potentiation factor50 (PF50) is defined as the ratio of […]. All data were from at least three independent experiments.

D425Med xenografts = test: Tumour growth inhibition in vivo, D425Med xenografts; design: species or system mouse
Excerpt: as §1

PARP-1 [2] = target: T1, PARP-1 (Mus musculus, UniProt P11103); test: PARP activity in brain homogenates after AG-014699 dosing; format: in vivo
T1 construct: from tissue; host or cells: brain of CD-1 nude mice
T1 sequence (P11103 whole entry): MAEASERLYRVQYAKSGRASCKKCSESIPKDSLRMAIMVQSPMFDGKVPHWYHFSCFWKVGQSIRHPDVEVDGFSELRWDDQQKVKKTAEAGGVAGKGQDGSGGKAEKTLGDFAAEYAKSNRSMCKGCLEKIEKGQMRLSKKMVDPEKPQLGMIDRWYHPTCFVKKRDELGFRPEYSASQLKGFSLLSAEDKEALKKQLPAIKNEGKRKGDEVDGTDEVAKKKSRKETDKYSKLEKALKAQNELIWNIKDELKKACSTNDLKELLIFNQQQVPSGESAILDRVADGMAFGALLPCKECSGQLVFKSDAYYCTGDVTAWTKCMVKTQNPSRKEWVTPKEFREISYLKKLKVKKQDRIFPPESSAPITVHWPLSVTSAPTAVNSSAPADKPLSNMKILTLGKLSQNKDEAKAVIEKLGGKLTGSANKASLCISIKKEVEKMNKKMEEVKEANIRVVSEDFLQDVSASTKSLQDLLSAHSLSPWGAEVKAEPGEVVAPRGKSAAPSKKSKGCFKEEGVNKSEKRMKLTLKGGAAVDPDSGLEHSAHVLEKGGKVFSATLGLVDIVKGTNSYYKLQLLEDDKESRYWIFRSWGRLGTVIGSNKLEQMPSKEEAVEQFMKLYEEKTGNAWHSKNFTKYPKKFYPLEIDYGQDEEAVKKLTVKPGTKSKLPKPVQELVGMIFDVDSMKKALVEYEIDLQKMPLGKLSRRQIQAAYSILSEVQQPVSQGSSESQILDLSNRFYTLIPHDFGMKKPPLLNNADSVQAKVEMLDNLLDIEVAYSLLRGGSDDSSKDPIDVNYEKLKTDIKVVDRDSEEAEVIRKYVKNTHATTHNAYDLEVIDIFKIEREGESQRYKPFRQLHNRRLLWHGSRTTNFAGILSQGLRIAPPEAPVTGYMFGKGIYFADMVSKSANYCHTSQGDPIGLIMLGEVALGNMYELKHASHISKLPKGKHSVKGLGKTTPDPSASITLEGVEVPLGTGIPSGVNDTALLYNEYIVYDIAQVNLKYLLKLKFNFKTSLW
Experimental: One or four daily doses of PARP inhibitor AG-014699 (1 mg kg^−1 intraperitoneally (i.p.)) were given to CD-1 nude mice bearing established D283Med xenografts. At 0.5, 2, 6 and 24 h after the initial or fourth daily dose of AG-014699, three animals per time point were bled by cardiac puncture under general anaesthesia, and then killed. Plasma was separated from the blood samples using standard methods and stored at −80°C. The brains and tumours were removed, snap frozen in liquid nitrogen and stored at −80°C before analysis. Blood, tumour and brain tissue were removed from three untreated control animals and processed in the same way.
PARP activity was determined in homogenates of subcutaneous D283Med xenografts and brain tissue (see above). Maximally stimulated PARP activity was measured in replicate samples (n⩾3) of a 1 : 1000 dilution of the homogenate as described for permeabilised D283Med cells (see above). Data were calculated as pmol PAR per mg protein by reference to the PAR standard curve and protein content of the sample and expressed as a percentage of the corresponding tissue from the saline-treated control animals. The mean PARP activity in xenograft and brain samples taken at each time point was expressed as a percentage of the mean PARP activity of control xenografts from untreated mice (n=3).

D384Med xenografts = test: Tumour growth inhibition in vivo, D384Med xenografts; design: species or system mouse
Excerpt: as §1

D384Med cells = test: XTT growth inhibition, D384Med; format: cell-based, human
Experimental: as §2

PARP-1 (Homo sapiens, UniProt P09874), sequence (P09874 whole entry): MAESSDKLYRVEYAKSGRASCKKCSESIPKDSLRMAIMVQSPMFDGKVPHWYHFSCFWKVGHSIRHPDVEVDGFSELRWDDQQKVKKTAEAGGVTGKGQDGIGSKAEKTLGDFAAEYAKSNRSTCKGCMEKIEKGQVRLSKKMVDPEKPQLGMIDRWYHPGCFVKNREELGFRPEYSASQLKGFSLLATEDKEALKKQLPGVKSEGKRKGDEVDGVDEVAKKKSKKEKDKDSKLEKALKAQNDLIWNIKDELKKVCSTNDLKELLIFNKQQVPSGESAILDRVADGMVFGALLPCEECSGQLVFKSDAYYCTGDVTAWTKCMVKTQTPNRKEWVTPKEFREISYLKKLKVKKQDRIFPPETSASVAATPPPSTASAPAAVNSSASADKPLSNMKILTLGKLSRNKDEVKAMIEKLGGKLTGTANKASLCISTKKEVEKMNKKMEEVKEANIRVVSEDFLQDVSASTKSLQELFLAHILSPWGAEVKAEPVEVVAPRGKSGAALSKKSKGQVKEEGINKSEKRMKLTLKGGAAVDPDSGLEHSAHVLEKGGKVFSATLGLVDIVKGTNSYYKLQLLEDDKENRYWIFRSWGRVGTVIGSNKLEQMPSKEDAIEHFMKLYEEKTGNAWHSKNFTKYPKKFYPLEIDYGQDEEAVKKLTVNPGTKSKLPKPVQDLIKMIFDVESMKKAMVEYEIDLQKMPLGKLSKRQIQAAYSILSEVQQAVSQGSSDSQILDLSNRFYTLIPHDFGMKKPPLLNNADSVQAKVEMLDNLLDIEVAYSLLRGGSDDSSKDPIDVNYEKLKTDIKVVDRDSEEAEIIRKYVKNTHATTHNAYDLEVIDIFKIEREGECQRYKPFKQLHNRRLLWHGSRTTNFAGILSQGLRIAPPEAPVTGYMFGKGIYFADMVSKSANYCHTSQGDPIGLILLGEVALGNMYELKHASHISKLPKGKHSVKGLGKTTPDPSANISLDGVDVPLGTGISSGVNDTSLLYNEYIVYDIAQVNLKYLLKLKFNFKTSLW

CNCc1ccc(-c2[nH]c3cc(F)cc4c3c2CCNC4=O)cc1 [AG-014699]
Inhibition of PARP-1 activity (PARP-1 [1]; 0.1 μM AG-014699): 80%
Inhibition of PARP-1 activity (PARP-1 [1]; 0.4 μM AG-014699): > 95%
inhibition at 0.1 µM (PARP-1 [1]; D283 Med, 0.1 μM AG-014699): 81.1%
inhibition at 0.4 µM (PARP-1 [1]; D283 Med, 0.4 μM AG-014699): 96.8%
inhibition at 1 µM (PARP-1 [1]; D283 Med, 1 μM AG-014699): 97.1%
Median nadir body weight (% starting weight) (D283Med xenografts; D283Med-bearing mice, daily x5, TMZ 68 mg kg−1 p.o., AG-014699 1 mg kg−1 i.p.): 100 % starting weight
Median time to RTV4 (D283Med xenografts; D283Med, daily x5, TMZ 68 mg kg−1 p.o., AG-014699 1 mg kg−1 i.p.): 8 days
Complete regressions (D283Med xenografts; D283Med, mice with regression/group): 0/5
Tumour growth delay (D283Med xenografts; D283Med, versus control time to RTV4): 1 days
Sensitisation to temozolomide by AG-014699 (D283Med cells; D283Med (MMR-defective), 0.4 μM AG-014699): 20 fold
Growth inhibition by AG-014699 alone (D283Med cells; D283Med, 0.4 μM, data not shown): not growth inhibitory
PF50 (D283Med cells; D283Med, potentiation of temozolomide by 0.4 μM AG-014699): 19±4.7
Median nadir body weight (% starting weight) (D425Med xenografts; D425Med-bearing mice, daily x5, TMZ 68 mg kg−1 p.o., AG-014699 1 mg kg−1 i.p.): 98 % starting weight
Median time to RTV4 (D425Med xenografts; D425Med, daily x5, TMZ 68 mg kg−1 p.o., AG-014699 1 mg kg−1 i.p.): 15.5 days
Complete regressions (D425Med xenografts; D425Med, mice with regression/group, sustained for 100 days): 0/5
PARP activity in brain (PARP-1 [2]; 24 h after fourth daily dose 1 mg kg−1 i.p.): near-normal activity
Reduction of PARP activity in brain (PARP-1 [2]; 24 h after single dose 1 mg kg−1 i.p.): approximately 40%
Reduction of PARP activity in brain tissue (PARP-1 [2]; abstract, time not stated): ≥ 75%
Reduction of PARP activity in brain (PARP-1 [2]; first 2 h after single dose 1 mg kg−1 i.p.): around 75%
Median nadir body weight (% starting weight) (D384Med xenografts; D384Med-bearing mice, daily x5, TMZ 68 mg kg−1 p.o., AG-014699 1 mg kg−1 i.p.): 96 % starting weight
Median time to RTV4 (D384Med xenografts; D384Med, daily x5, TMZ 68 mg kg−1 p.o., AG-014699 1 mg kg−1 i.p.): 20 days
Complete regressions (D384Med xenografts; D384Med, mice with regression/group, transient): 0/5
Tumour growth delay (D384Med xenografts; D384Med, versus control time to RTV4): 4 days
Sensitisation to temozolomide by AG-014699 (D384Med cells; D384Med (MGMT+ MMR+), 0.4 μM AG-014699): > 3 fold
Growth inhibition by AG-014699 alone (D384Med cells; D384Med, 0.4 μM, data not shown): not growth inhibitory
PF50 (D384Med cells; D384Med, potentiation of temozolomide by 0.4 μM AG-014699): 3.8±1
